Values after ≈ are worked out from the molar mass of the structure shown. Active and inactive are the calls of the source. The calls are words filed in the database; no cut-off is given here.
How the values were obtained:
[1] = system: Escherichia coli; assay type: functional; conditions: JM109, 24 h
[2] = system: Micrococcus luteus; assay type: functional; conditions: ATCC 4698, 24 h
[3] = system: Staphylococcus aureus; assay type: functional; conditions: ATCC 25923, 24 h
[4] = system: Shigella dysenteriae; assay type: functional; conditions: 24 h
[5] = system: Escherichia coli; assay type: functional; conditions: DH52, 24 h
[6] = system: Pseudomonas aeruginosa; assay type: functional; conditions: ATCC 27853, 24 h
[7] = system: Proteus vulgaris; assay type: functional; conditions: ATCC 13315, 24 h
[8] = system: Salmonella typhi; assay: microbe, parasite or virus in culture; conditions: Salmonella enterica, 24 h
[9] = system: Staphylococcus aureus; assay type: functional; conditions: N315, 24 h
[10] = system: Bacillus spizizenii; assay type: functional; conditions: ATCC 6633, 24 h
[11] = system: Aspergillus flavus; assay type: functional; conditions: ATCC 204304
[12] = system: Candida albicans; assay type: functional
[13] = Aqueous solubility of the compound in pH 7.4 phosphate buffer at 1 mg after 3 hrs by UV absorption analysis; assay type: physicochemical
[14] = system: Cyberlindnera jadinii; assay type: functional; conditions: ATCC 9950
[15] = system: Kregervanrija fluxuum; assay type: functional; conditions: ATCC 9888
[16] = system: DNA; assay: Induction of Escherichia coli supercoiled pUC19 DNA cleavage at 0.0125 mM after 16 hrs in absence of Zn2+ by ethidium bromide staining-based agarose gel electrophoresis method; assay type: nucleic-acid assay
[17] = system: Staphylococcus aureus; assay: Antibacterial activity against methicillin-resistant Staphylococcus aureus N315 after 5 passages; assay type: functional, organism-based

For `CCCCCCCCCCOc1c(OC)cc(/C=N/n2cnnc2)c2c1CN1CCc3cc4c(cc3C1C2)OCO4` (configuration not stated), the MIC [1] was 128 µg/mL (≈ 229 µM), the MIC [2] was 64 µg/mL (≈ 114 µM) and the MIC [3] was 32 µg/mL (≈ 57.2 µM). For the same compound, the MIC [4] was 128 µg/mL (≈ 229 µM), the MIC [5] was 64 µg/mL (≈ 114 µM) and the MIC [6] was 128 µg/mL (≈ 229 µM). For the same compound, the MIC [7] was 64 µg/mL (≈ 114 µM), the MIC [8] was 16 µg/mL (≈ 28.6 µM) and the MIC [9] was 32 µg/mL (≈ 57.2 µM). For the same compound, the MIC [10] was 32 µg/mL (≈ 57.2 µM).

In the case of `COc1cc(/C=N/n2cnnc2)c2c(c1O)CN1CCc3cc4c(cc3C1C2)OCO4` (configuration not stated), the MIC [1] is reported as 128 µg/mL (≈ 305 µM), the Activity [11] is reported as “inactive” and the MIC [2] is reported as 1 µg/mL (≈ 2.38 µM). The Activity ([12]; ATCC 10231) was “inactive”, the solubility at 3 h [13] was 392 µg/mL (≈ 935 µM) and the MIC [3] was 64 µg/mL (≈ 153 µM). For the same compound, the MIC [4] was 256 µg/mL (≈ 610 µM), the Activity [14] was “inactive” and the MIC [5] was 128 µg/mL (≈ 305 µM). For the same compound, the MIC [6] was 128 µg/mL (≈ 305 µM), the MIC [7] was 64 µg/mL (≈ 153 µM) and the Activity [15] was “inactive”. The MIC [8] was 128 µg/mL (≈ 305 µM), the MIC [9] was 16 µg/mL (≈ 38.1 µM) and the MIC [10] was 512 µg/mL (≈ 1220 µM).

For `COc1ccc2cc3[n+](cc2c1OC)CCc1cc2c(cc1-3)OCO2` [BERBERINE], the Activity [16] was “inactive”, the MIC [2] was over 512 µg/mL and the solubility at 3 h [13] was 85 µg/mL. It also gave an MIC [3] of 512 µg/mL, an MIC [4] of 256 µg/mL and an MIC [5] of over 512 µg/mL. For the same compound, the MIC [6] was 256 µg/mL, the MIC [9] was 128 µg/mL and the MIC [10] was over 512 µg/mL.

For `CCOc1c(OC)cc(/C=N/n2cnnc2)c2c1CN1CCc3cc4c(cc3C1C2)OCO4` (configuration not stated), the MIC [1] was 256 µg/mL (≈ 572 µM), the MIC [2] was 16 µg/mL (≈ 35.8 µM) and the MIC [3] was 256 µg/mL (≈ 572 µM). It also gave an MIC [4] of 512 µg/mL (≈ 1140 µM), an MIC [5] of 512 µg/mL (≈ 1140 µM) and an MIC [6] of 256 µg/mL (≈ 572 µM). The MIC [7] was 32 µg/mL (≈ 71.5 µM), the MIC [8] was 256 µg/mL (≈ 572 µM) and the MIC [9] was 8 µg/mL (≈ 17.9 µM). For the same compound, the MIC [10] was 128 µg/mL (≈ 286 µM).

Compound `COc1cc(/C=N/n2cnnc2)c2c(c1OCc1cccc(Cl)c1)CN1CCc3cc4c(cc3C1C2)OCO4` (configuration not stated) has an MIC [1] of 0.5 µg/mL (≈ 0.919 µM), an MIC [2] of 512 µg/mL (≈ 941 µM) and an MIC [3] of 256 µg/mL (≈ 471 µM). It also gave an MIC [4] of 64 µg/mL (≈ 118 µM), an MIC [5] of 512 µg/mL (≈ 941 µM) and an MIC [6] of 512 µg/mL (≈ 941 µM). It also gave an MIC [7] of 512 µg/mL (≈ 941 µM), an MIC [8] of 256 µg/mL (≈ 471 µM) and an MIC [9] of 256 µg/mL (≈ 471 µM). It also gave an MIC [10] of 512 µg/mL (≈ 941 µM).

Work on `COc1cc(/C=N/n2cnnc2)c2c(c1OCc1ccc(F)cc1)CN1CCc3cc4c(cc3C1C2)OCO4` (configuration not stated) yielded an MIC [1] of 32 µg/mL (≈ 60.7 µM), an MIC [2] of 2 µg/mL (≈ 3.79 µM) and a solubility at 3 h [13] of 185 µg/mL (≈ 351 µM). The MIC [3] was 32 µg/mL (≈ 60.7 µM), the MIC [4] was 16 µg/mL (≈ 30.3 µM) and the MIC [5] was 16 µg/mL (≈ 30.3 µM). The MIC [6] was 8 µg/mL (≈ 15.2 µM), the MIC [7] was 128 µg/mL (≈ 243 µM) and the MIC [8] was 4 µg/mL (≈ 7.58 µM). For the same compound, the MIC [9] was 8 µg/mL (≈ 15.2 µM) and the MIC [10] was 32 µg/mL (≈ 60.7 µM).

With `CCn1cc(C(=O)O)c(=O)c2cc(F)c(N3CCNCC3)cc21` [NORFLOXACIN] the MIC [1] was 1 µg/mL (≈ 3.13 µM), the MIC [2] was 4 µg/mL (≈ 12.5 µM) and the MIC [3] was 0.5 µg/mL (≈ 1.57 µM). For the same compound, the MIC [4] was 4 µg/mL (≈ 12.5 µM), the Activity [17] was “inactive” and the MIC [5] was 1 µg/mL (≈ 3.13 µM). The MIC [6] was 16 µg/mL (≈ 50.1 µM), the MIC [7] was 8 µg/mL (≈ 25.1 µM) and the MIC [8] was 4 µg/mL (≈ 12.5 µM). For the same compound, the MIC [9] was 8 µg/mL (≈ 25.1 µM) and the MIC [10] was 4 µg/mL (≈ 12.5 µM).

Compound `COc1cc(/C=N/n2cnnc2)c2c(c1OCc1cccc(F)c1)CN1CCc3cc4c(cc3C1C2)OCO4` (configuration not stated) has an MIC [1] of over 512 µg/mL, an MIC [2] of 32 µg/mL (≈ 60.7 µM) and an MIC ([12]; ATCC 10231, 24 h) of 0.5 µg/mL (≈ 0.948 µM). For the same compound, the MIC [3] was 256 µg/mL (≈ 485 µM), the MIC [4] was 256 µg/mL (≈ 485 µM) and the MIC [5] was 256 µg/mL (≈ 485 µM). The MIC [6] was 16 µg/mL (≈ 30.3 µM), the MIC [7] was 64 µg/mL (≈ 121 µM) and the MIC [8] was 512 µg/mL (≈ 971 µM). For the same compound, the MIC [9] was 512 µg/mL (≈ 971 µM) and the MIC [10] was 512 µg/mL (≈ 971 µM).

With `COc1cc(/C=N/n2cnnc2)c2c(c1OCc1ccc([N+](=O)[O-])cc1)CN1CCc3cc4c(cc3C1C2)OCO4` (configuration not stated) the MIC [1] was 128 µg/mL (≈ 231 µM), the MIC [2] was 2 µg/mL (≈ 3.61 µM) and the MIC [3] was 512 µg/mL (≈ 923 µM). It also gave an MIC [4] of 64 µg/mL (≈ 115 µM), an MIC [5] of 512 µg/mL (≈ 923 µM) and an MIC [6] of 64 µg/mL (≈ 115 µM). It also gave an MIC [7] of 512 µg/mL (≈ 923 µM), an MIC [8] of 4 µg/mL (≈ 7.21 µM) and an MIC [9] of 16 µg/mL (≈ 28.9 µM). It also gave an MIC [10] of 256 µg/mL (≈ 462 µM).

Source: ChEMBL document CHEMBL4261494, “Design, synthesis and biological evaluation of novel Schiff base-bridged tetrahydroprotoberberine triazoles as a new type of potential antimicrobial agents” (Medchemcomm, 2017)
